Measured values: article PMC2813186 (Biochemistry, 2009)
One block for each compound: values may come before it. Ends that are not written are not given here.

What was measured:
Prep [1] = test: CNS tissue; conditions: WT mice (C57BL/6), up to 4 hours
Prep [2] = target: T1, Prep (Mus musculus, UniProt Q9QUR6); test: Prep inhibition with CGRP; format: biochemical
Prep [3] = target: T1, Prep; test: label-free LC-MS peptidomics of CNS tissues, S17092 versus vehicle treated mice; format: in vivo; conditions: S17092 30 mg/kg i.p.
recombinant Prep = test: recombinant Prep; conditions: mouse, 25°C, up to 60 minutes

T1 sequence (Q9QUR6 whole entry): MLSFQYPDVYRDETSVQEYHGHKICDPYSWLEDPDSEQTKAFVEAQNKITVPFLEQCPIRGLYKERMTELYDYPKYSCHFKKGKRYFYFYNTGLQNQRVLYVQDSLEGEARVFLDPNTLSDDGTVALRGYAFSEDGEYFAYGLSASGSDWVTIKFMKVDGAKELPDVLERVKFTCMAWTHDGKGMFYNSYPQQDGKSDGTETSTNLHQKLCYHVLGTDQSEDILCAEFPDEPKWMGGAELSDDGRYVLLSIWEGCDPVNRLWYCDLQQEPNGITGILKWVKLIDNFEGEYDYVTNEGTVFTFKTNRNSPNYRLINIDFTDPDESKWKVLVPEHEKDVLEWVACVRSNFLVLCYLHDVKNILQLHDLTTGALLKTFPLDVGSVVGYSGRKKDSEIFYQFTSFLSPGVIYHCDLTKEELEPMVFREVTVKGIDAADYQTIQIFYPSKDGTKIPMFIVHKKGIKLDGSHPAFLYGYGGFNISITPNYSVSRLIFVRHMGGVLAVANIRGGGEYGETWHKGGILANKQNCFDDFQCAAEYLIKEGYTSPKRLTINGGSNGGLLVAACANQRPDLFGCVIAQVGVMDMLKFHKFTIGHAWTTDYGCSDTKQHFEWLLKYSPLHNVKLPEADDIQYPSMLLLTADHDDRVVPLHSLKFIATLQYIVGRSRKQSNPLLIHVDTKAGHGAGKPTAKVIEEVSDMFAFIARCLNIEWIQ

Compound: MDELYPMEPEEEANGGEILA
- fragment found (Prep [1]): Penk(123–133)

Compound: GGVVKDNFVPTNVGSEAF-NH2 [CGRP(20–37)]
- Levels of Prep substrates in the spinal cord 1 hour and 4 hours after i.p. S17092 administration (Prep [3]): significantly elevated at 1 hour (gray bar) and 4 hours

Next, values leading:

- fragment found (Prep [1]): Vgf(490–502)
Compound: APPEPVPPPRAAPAPTHV

- IC50 (Prep [2]): 2000 nM
Compound: CC(C)C[C@H](NC(=O)CNC(=O)[C@H](C)NC(=O)[C@H](CC(C)C)NC(=O)[C@H](CCCNC(=N)N)NC(=O)[C@H](Cc1c[nH]cn1)NC(=O)[C@@H](NC(=O)[C@@H](NC(=O)[C@@H]1CSSC[C@H](NC(=O)[C@@H](N)CO)C(=O)N[C@@H](CC(N)=O)C(=O)N[C@@H]([C@@H](C)O)C(=O)N[C@@H](C)C(=O)N[C@@H]([C@@H](C)O)C(=O)N1)C(C)C)[C@@H](C)O)C(=O)N[C@@H](CC(C)C)C(=O)N[C@@H](CO)C(=O)N[C@@H](CCCNC(=N)N)C(=O)N[C@@H](CO)C(=O)NCC(=O)NCC(=O)N[C@H](C(=O)N[C@H](C(=O)N[C@@H](CCCCN)C(=O)N[C@@H](CC(=O)O)C(=O)N[C@@H](CC(N)=O)C(=O)N[C@@H](Cc1ccccc1)C(=O)N[C@H](C(=O)N1CCC[C@H]1C(=O)N[C@H](C(=O)N[C@@H](CC(N)=O)C(=O)N[C@H](C(=O)NCC(=O)N[C@@H](CO)C(=O)N[C@@H](CCC(=O)O)C(=O)N[C@@H](C)C(=O)N[C@@H](Cc1ccccc1)C(N)=O)C(C)C)[C@@H](C)O)C(C)C)C(C)C)C(C)C [CGRP(1–37), calcitonin gene-related peptide]

- fragment found (recombinant Prep): CGRP(30–37)
Compound: GGVVKDNFVPTNVGSEAF-NH2
